Values of other authors, collected in paper PMC2099433, “The binding site for neohesperidin dihydrochalcone at the human sweet taste receptor” (BMC Structural Biology, 2007).

Molecular target: T1, hTAS1R2 + hTAS1R3 L782A^6.55 (Homo sapiens, UniProt Q7RTX0+Q8TE23, L782A)
T1 construct: expressed in transfected cells; host or cells: HEK293T cells stably expressing G16Gust44
T1 sequence (Q8TE23 20-839): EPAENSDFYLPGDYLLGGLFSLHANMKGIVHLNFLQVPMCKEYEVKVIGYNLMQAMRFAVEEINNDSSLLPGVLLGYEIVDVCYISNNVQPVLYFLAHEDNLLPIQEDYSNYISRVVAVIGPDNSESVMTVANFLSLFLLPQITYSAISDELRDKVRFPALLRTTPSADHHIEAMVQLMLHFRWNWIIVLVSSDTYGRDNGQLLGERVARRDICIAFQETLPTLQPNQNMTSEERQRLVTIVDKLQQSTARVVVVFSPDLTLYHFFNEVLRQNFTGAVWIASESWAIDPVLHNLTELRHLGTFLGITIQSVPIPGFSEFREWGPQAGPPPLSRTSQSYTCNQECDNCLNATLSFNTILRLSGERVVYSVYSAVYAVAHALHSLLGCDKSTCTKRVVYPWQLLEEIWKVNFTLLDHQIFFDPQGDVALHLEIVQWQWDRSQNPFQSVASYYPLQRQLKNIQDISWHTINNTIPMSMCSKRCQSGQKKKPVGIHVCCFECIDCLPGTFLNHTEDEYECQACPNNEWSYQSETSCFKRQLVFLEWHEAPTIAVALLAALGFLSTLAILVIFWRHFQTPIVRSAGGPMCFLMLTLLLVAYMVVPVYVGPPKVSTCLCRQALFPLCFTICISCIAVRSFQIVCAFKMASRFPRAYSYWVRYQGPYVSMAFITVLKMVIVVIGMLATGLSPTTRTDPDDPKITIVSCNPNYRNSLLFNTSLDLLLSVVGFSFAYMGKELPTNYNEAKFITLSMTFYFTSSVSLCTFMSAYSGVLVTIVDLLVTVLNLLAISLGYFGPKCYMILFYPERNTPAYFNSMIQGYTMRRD
T1 sequence (Q7RTX0 21-852 L782A): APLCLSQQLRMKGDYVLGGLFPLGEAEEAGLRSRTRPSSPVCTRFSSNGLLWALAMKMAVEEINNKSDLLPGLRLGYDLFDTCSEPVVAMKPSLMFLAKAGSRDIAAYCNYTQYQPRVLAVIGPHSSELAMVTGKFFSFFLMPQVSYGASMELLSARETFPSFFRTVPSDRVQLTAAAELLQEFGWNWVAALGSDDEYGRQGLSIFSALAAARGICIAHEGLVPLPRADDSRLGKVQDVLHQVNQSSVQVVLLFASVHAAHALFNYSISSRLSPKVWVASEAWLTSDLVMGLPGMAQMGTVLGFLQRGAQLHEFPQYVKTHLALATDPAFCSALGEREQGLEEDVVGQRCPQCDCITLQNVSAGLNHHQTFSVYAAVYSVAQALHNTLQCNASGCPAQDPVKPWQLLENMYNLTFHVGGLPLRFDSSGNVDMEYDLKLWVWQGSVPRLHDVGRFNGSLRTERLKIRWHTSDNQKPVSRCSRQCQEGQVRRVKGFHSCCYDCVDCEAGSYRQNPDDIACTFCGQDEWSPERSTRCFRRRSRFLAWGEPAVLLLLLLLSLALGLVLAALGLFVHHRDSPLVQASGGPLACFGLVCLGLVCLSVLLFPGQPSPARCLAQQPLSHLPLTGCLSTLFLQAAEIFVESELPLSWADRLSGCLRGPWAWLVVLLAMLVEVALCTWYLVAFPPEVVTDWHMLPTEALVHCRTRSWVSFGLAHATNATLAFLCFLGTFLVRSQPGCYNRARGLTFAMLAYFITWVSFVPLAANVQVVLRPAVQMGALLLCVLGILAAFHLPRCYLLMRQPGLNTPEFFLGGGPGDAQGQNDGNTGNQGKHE
Design: method as in PMID 15668251
Conditions: mutation L782A^6.55; cited from earlier work

SMILES: O=S(=O)(O)NC1CCCCC1 [cyclamate]
- receptor activation: abolished activation
